row,melting point [°C],SMILES
1,173,CC(C)(C)c1cc(C(C(=O)O)c2ccc(O)c(C(C)(C)C)c2)ccc1O
2,214 to 218,CCn1cc(C(=O)NCc2ccc(Cl)cc2)c(=O)c2cc(I)sc21
3,23,CCC(CSC(=S)N(C)C)[N+](=O)[O-] (stereo not given)
4,212,COC1(c2cccc3[nH]ccc23)CCCNC1 (stereo not given)
5,151 to 153,CSC1C(=O)Nc2c(Nc3ccccc3Cl)cccc21 (stereo not given)
6,123 to 125,Cn1ccc(-c2ccc3c(ccn3-c3ccc(F)cc3)c2)n1
7,139 to 141,Cc1noc(C)c1-c1cn(Cc2ccccc2)c(=O)c2ccccc12
8,189,COc1ccc(S(=O)(=O)N(CCC(N)=O)c2ccc(Cl)cc2Cc2c(F)cccc2F)cc1OC
9,190 to 191,COC(=O)c1cccc(-n2cnc3cc(-c4ccno4)ccc32)c1
10,193 to 194,COC(=O)c1ccc2c(=O)n(CC(C)C)c(CNC(=O)OC(C)(C)C)c(-c3ccc(C)cc3)c2c1
11,96,COc1ccc(C=C(CSC(C)=O)C(=O)NCCC(=O)OCc2ccccc2)cc1
12,92 to 94,CN1CC(CCCl)Oc2ccc(Br)cc2C1=O (stereo not given)
13,177 to 179,COc1ccc(C2=NN(Cc3ccc(O)cc3)C(=O)[C@H]3CCCC[C@@H]23)cc1OC (relative stereo)
14,161 to 163,COC(=O)C1C(=O)Nc2ccc(C(F)(F)F)cc2CC1c1ccc(OC)cc1 (stereo not given)
15,152 to 155,C#Cc1cccc(Nc2ncnc3ccc(S(=O)(=O)n4ccc(C=CC(=O)NOC5CCCCO5)c4)cc23)c1 (stereo not given)
16,113,COc1cccc2c1CC(C(=O)NCCOc1ccc(C(=O)O)cc1)N2S(=O)(=O)c1ccc(-c2ccc(F)cc2)cc1 (stereo not given)
17,222,O=C(O)C1=CC2=C(C(=O)C1)N1C=CC=CC1=CS2
18,215,O=c1[nH]c2ccc(S(=O)(=O)Nc3ccc(Cl)cc3Cl)cc2c(=O)o1
19,40 to 47,COC(=O)c1ccc(CC(C)=O)cc1

row,melting point [°C],SMILES
1,152 to 153,CNC1=NS(=O)(=O)N=C1NCCCCc1ccc(CN(C)C)o1
2,380,Cn1cc(C#N)c(=O)c2cc3cc(F)c(F)cc3nc21
3,119 to 121,CCCC1=C(C(=O)OCC)C(c2ccccc2Cl)c2cn(C(=O)c3ccccc3)nc2N1 (stereo not given)
4,197 to 199,COc1ccc(-c2ccc(C(=O)CCC(=O)O)cc2)cc1
5,150,CCCCCOc1cc(C=CC(=O)O)ccc1OC
6,139 to 140,CCCCCCCCCCN1C(=O)OC2(CCNCC2)C1(C)O (stereo not given)
7,72 to 73,CCc1nn(-c2ccc(F)cc2)c2cc(Br)ccc12
8,130 to 132,C#CC[C@H](c1nc2cc(Cl)ccc2c(=O)n1Nc1ccccc1)N(CCCN1C(=O)c2ccccc2C1=O)C(=O)c1cccc(Cl)c1F
9,28.5 to 29.5,CCCCCCCCCCCCCCCCO[C@@H]1CCCO[C@H]1COCc1ccccc1 (relative stereo)
10,178,Cn1c(=O)cc(-c2cccc(Cl)c2)c2cc(C(O)(c3ccc(Cl)cc3)c3cnccc3Cl)ccc21 (stereo not given)
11,318,O=S(=O)(O)OC[C@H]1Cc2ccccc2CN1
12,111,CCOC(=O)C(=O)c1cc(Cl)c(C)cc1NC(=O)OC(C)(C)C
13,130 to 132,COC(=O)c1cc(CC#N)cc(Cc2nc3c(F)c(F)cc(F)c3s2)c1
14,241 to 242,O=c1cc(CO)nc2ccn(-c3ccccc3)n12
15,115 to 116,CC(=O)N[C@@H](C)COC1CCN(c2nc3cc(OCC4CC4)ccc3s2)CC1
16,> 180,COc1ccc2cc([C@H](C)C(=O)OC[C@@H]3NC(=O)[C@@H](C(C)(C)S)NC3=O)ccc2c1
17,250,CC1(C)CCC(C)(C)c2cc(-c3cc(-c4ccc(C(=O)O)cc4)ccc3OCCCCN)ccc21
18,68.5 to 69.5,O=C(CSc1ccccc1)C1CCCCN1 (stereo not given)
19,129 to 131,COc1ccc(-c2ccc3nn(-c4cc(C(C)(C)CC(C)(C)C)cc(C(C)(C)c5ccccc5)c4O)nc3c2)cc1

# The next lines start with the compound.
row,SMILES,melting point [°C]
1,O=C1C=C(NC(=O)C(=O)c2cn(Cc3ccc([N+](=O)[O-])cc3)c3ccccc23)CO1,275 to 277
2,O=c1[nH]c2ncc(-c3cccc(-c4nc[nH]n4)c3)nc2n1CC1CCCCC1,305 to 307
3,CC(=O)OC1CC2(C)C(=O)CCC2C2C(C)CC3=CC(=O)CCC3C12 (stereo not given),183
4,O=C1OC(=O)c2cc(OCCCOc3ccccc3)ccc21,96 to 98
5,CCCCc1ncc(/C=C(\Cc2cccs2)C(=O)O)n1Cc1ccc(CC(=O)O)cc1,169 to 171
6,O=S(=O)(NC(CO)CO)c1ccc(Br)s1,80
7,CNC(=O)C(NC(=O)c1ccc(F)cc1C(F)(F)F)C(C[N+](=O)[O-])c1ccccc1 (stereo not given),223
8,Cc1cc(C#N)cc(CC#N)c1,63 to 64
9,NCCSc1ncccc1C(O)c1ccccc1 (stereo not given),118 to 120
10,C=C1CC2(C)C(O)CCC2C2C(C)CC3=CC(=O)CCC3C12 (stereo not given),138 to 139
11,Oc1c(Cc2ccccc2)cc(Br)c2ccccc12,123 to 125
12,CC(C)CCCC(C)CCCC(C)CCCC(C)(O)C(CO)NCCO (stereo not given),49.1 to 50.2
13,C[C@]12CC[C@@H]3c4ccc(OCC(=O)O)cc4CC[C@H]3[C@@H]1CCC2=O,205 to 208
14,Cc1c(OCCNC(=O)OC(C)(C)C)noc1-c1ccccc1,118 to 120
15,Cc1nc(N2C(=O)CN(c3ccc(F)cc3)C2=O)sc1C(=O)NCc1ccccc1,217 to 219
16,Oc1cccc(-c2csc(-c3cccnc3)n2)c1,180 to 181

row,SMILES,melting point [°C]
1,CCC(C(C)=CC(CNC(=O)c1ccc(N)nc1)=NO)[N+](=O)[O-] (stereo not given),190 to 191
2,CC12CC(=O)C3C(CCC4CC(O)CCC43C)C1CCC2C(=O)CBr (stereo not given),160 to 163
3,CC(=O)c1ccc(OCCCBr)c(C)c1,59 to 61
4,O=C(CCl)Nc1ccncc1O,155 to 158
5,CCn1cc(Br)nc(N)c1=O,227 to 230
6,N=C(N)c1ccc(-n2ccn(-c3ccc(C=CC(=O)O)cc3)c2=O)cc1,> 350
7,COc1ccc2c(c1)c(Cc1cc(=O)n(-c3cccc(C(F)(F)F)c3)[nH]1)c(C)n2C(=O)c1ccccc1,60 to 64.5
8,CN1CCc2c(-c3ccc(F)cc3)ccc([N+](=O)[O-])c2C1,140 to 143
9,COc1cccc(F)c1COC1(C(F)(F)F)CN(C)C(=O)Nc2ccc(Cl)cc21 (stereo not given),172 to 174
10,O=C(O)c1ccc(-c2nc(-c3ccccn3)cs2)cc1,> 300
11,Nc1cccc(-c2ccc(CCN3CCN(C(=O)c4ccccc4)CC3)cc2)n1,125 to 127
12,COC1CCC(OS(=O)(=O)c2ccc(C)cc2)C(COS(=O)(=O)c2ccc(C)cc2)O1 (stereo not given),110 to 112
13,CCOC(=O)C[C@H]1O[C@H](c2ccc(OCc3ccccc3)cc2OC)c2cc(Cl)ccc2N(CC(C)(C)C)C1=O (relative stereo),130 to 131
14,OCc1cc2cccc(Br)c2s1,82 to 83
15,CC(C)(C)c1cc(N(C(=O)CCC(=O)O)c2ccccc2)cc(C(C)(C)C)c1O,205 to 208
16,COc1cc2c(cc1OC)CCCC(C(=O)N1CCN(Cc3cc(OC)c(OC)c(OC)c3)CC1CCCO)=C2 (stereo not given),144 to 145

# Reference: a melting point compilation (Tetko et al.; mined from patent text by program, amines drawn as free bases though some values may be those of a salt)
